Test results as given in ChEMBL document CHEMBL5465560, “Selectivity Literature for EUbOPEN Chemogenomic Library” (2024).

Columns and labels:
[1] = target: Insulin receptor (Homo sapiens, UniProt P06213); test: Selectivity interaction (Kinase screening (Nanosyn)) EUB0000604a INSR
[2] = target: Cell division control protein 42 homolog (Homo sapiens) (UniProt P60953); test: Selectivity interaction (Kinase panel (Invitrogen)) EUB0000639a CDC42; conditions: at 200 nM
[3] = target: T1, Serine/threonine-protein kinase D3 (Homo sapiens) (UniProt O94806); test: Selectivity interaction (ActivX KiNativ screen (kinase selectivity in THP-1 cell lysates)) EUB0000639a PRKD3; assay type: subcellular; conditions: lysate, at 0.2 µM
T1 sequence (whole entry): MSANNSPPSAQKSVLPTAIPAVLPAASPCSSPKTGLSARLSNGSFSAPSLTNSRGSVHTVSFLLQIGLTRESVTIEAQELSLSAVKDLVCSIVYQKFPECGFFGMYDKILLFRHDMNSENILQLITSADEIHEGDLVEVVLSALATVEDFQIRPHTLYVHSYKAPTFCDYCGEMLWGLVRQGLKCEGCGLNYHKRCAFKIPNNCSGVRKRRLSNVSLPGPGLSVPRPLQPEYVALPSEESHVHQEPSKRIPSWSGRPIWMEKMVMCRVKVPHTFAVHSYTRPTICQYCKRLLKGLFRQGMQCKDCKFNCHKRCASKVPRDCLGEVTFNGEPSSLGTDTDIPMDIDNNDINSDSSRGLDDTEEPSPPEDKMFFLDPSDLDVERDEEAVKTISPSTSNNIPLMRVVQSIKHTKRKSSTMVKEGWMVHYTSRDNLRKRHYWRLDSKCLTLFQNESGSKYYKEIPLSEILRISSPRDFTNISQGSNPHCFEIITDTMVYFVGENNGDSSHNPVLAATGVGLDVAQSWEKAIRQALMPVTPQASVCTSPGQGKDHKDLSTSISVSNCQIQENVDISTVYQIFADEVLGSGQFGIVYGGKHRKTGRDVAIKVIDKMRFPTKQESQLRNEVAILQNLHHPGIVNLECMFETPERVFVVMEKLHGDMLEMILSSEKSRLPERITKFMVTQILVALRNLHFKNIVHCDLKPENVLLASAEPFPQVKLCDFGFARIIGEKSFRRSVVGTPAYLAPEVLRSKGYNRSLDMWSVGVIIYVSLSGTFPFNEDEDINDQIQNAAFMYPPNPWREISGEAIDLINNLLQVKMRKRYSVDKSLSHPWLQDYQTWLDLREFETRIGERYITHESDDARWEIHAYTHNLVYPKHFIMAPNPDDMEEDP

[4] = target: DNA-dependent protein kinase catalytic subunit (Homo sapiens) (UniProt P78527); test: Selectivity interaction (Kinase panel (Z-LYTE Assay)) EUB0001632a PRKDC; conditions: at 10 µM
[5] = target: T2, Serine/threonine-protein kinase Nek5 (Homo sapiens) (UniProt Q6P3R8); test: Selectivity interaction (KinomeScan (DiscoverX)) EUB0000655a NEK5; conditions: at 10 µM
T2 sequence (whole entry): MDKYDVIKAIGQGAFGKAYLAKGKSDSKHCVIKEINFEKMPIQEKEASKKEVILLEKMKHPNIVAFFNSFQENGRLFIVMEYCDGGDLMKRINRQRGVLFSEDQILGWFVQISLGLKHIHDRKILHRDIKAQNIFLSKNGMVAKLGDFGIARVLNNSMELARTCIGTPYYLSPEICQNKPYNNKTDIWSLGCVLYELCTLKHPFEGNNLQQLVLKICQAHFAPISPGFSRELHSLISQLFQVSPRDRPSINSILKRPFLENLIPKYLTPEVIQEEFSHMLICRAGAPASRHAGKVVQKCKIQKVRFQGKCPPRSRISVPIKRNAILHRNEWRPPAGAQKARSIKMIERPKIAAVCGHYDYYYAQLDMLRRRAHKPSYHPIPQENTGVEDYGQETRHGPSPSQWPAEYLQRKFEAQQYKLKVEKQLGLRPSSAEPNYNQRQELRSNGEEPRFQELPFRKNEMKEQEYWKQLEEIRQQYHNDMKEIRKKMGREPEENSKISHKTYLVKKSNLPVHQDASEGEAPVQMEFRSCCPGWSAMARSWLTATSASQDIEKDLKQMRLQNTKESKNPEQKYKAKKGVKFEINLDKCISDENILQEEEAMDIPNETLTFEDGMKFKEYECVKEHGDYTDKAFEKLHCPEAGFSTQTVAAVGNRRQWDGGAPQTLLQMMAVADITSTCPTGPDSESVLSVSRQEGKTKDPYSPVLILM

[6] = target: Macrophage colony-stimulating factor 1 receptor (Homo sapiens) (UniProt P07333); test: Selectivity interaction (KinomeScan (DiscoverX)) EUB0001619a CSF1R; conditions: at 1 µM
[7] = target: SRSF protein kinase 1 (Homo sapiens, UniProt Q96SB4); test: Selectivity interaction (KinomeScan (DiscoverX)) EUB0001619a SRPK1; conditions: at 1 µM
Sequence of SRSF protein kinase 1 (Q96SB4 whole entry): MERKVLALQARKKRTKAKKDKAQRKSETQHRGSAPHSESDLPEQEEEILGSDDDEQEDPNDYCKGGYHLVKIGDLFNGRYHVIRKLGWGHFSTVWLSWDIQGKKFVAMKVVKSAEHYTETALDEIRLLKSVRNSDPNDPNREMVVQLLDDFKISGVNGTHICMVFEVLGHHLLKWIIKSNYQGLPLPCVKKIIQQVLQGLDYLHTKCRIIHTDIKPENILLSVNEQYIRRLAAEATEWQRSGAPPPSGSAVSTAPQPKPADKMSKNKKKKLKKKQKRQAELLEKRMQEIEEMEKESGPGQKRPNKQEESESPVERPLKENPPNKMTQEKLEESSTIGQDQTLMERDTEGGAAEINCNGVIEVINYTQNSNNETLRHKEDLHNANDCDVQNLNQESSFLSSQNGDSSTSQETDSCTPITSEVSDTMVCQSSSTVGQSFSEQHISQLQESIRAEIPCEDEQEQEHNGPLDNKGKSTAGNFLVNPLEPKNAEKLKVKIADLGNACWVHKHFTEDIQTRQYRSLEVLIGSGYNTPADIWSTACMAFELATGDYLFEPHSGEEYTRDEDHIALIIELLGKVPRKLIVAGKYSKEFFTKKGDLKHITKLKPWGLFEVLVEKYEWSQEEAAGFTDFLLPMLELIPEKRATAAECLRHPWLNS

Sequence of Insulin receptor (P06213 28-758 limits assumed): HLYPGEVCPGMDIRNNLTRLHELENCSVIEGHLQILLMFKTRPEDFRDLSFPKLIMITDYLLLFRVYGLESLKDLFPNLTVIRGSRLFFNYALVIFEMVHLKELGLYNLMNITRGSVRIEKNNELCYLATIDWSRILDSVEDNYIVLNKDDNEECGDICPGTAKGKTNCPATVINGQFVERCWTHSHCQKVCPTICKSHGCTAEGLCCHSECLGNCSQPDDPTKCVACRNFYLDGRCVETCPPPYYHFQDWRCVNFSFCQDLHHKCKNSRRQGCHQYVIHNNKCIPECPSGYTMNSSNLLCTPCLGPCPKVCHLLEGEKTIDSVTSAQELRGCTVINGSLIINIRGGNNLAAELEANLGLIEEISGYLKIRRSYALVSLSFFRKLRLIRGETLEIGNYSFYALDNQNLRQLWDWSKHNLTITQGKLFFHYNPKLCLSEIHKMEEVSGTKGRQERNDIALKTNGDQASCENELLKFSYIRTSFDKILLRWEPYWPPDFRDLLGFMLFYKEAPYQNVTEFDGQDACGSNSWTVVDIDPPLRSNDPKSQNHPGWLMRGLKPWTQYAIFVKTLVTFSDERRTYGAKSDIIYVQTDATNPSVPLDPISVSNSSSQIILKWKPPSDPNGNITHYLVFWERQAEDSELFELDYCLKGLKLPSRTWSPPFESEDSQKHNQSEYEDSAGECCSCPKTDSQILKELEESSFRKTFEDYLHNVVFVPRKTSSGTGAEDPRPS
Sequence of Insulin receptor (P06213 763-1382 limits assumed): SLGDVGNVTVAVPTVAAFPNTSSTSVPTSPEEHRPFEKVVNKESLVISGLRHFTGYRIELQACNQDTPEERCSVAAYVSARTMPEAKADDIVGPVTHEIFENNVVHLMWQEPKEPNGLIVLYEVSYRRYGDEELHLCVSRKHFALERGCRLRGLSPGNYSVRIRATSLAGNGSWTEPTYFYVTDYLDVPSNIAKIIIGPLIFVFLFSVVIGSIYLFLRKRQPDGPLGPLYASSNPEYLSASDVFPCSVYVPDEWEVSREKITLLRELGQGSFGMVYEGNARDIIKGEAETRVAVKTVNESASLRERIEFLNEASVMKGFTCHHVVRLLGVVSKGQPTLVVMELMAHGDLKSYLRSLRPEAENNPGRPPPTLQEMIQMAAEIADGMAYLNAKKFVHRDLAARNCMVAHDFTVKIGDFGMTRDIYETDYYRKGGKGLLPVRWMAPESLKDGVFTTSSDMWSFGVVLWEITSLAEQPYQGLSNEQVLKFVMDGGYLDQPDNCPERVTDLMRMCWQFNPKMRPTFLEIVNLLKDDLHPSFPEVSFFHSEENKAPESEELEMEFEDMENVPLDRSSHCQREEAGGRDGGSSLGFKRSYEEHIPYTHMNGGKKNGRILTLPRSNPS
Sequence of Macrophage colony-stimulating factor 1 receptor (Homo sapiens) (P07333 whole entry): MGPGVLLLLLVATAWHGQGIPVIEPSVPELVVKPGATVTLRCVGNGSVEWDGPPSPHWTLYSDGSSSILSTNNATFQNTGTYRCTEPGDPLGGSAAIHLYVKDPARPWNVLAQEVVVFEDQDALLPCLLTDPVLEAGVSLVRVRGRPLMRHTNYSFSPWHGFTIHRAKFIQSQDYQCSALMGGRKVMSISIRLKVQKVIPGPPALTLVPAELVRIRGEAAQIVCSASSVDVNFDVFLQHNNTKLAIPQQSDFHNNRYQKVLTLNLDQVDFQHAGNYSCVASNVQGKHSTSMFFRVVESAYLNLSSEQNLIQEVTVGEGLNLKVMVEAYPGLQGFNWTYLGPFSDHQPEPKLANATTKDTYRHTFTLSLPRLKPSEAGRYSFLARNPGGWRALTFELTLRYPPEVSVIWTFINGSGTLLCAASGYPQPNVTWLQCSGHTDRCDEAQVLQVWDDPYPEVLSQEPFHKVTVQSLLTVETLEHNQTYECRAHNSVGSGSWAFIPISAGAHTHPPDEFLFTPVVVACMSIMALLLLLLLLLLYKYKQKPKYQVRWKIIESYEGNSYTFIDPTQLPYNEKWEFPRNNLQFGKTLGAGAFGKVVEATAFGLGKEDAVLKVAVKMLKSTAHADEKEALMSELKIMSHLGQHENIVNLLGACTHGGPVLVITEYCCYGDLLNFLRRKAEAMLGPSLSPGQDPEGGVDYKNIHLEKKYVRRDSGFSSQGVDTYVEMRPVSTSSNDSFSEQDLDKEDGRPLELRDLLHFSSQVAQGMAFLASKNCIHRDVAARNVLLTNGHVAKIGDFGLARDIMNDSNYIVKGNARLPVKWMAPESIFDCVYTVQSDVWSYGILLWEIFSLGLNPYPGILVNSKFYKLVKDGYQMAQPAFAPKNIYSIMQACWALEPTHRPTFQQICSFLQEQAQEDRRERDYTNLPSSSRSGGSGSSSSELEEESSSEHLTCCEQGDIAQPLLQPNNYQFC
Sequence of Cell division control protein 42 homolog (Homo sapiens) (P60953 whole entry, looked up): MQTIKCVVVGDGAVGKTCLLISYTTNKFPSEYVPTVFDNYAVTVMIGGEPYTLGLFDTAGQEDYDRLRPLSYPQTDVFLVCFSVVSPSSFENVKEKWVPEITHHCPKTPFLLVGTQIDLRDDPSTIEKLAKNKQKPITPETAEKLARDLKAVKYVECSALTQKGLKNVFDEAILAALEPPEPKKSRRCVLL

`Cc1cnc(Nc2ccc(F)cc2Cl)nc1-c1c[nH]c(C(=O)N[C@H](CO)c2cccc(Cl)c2)c1` showed a % of inhibition [1] of 4%.

With `CC[C@@H]1[C@H](F)C(=O)N[C@@H]1COc1nccc2cc(C(N)=O)c(OC)cc12` [ZIMLOVISERTIB] the % of inhibition [2] was 13.7% and the % of inhibition [3] was -4.6%.

With `Cn1cc(-n2cnc3c(NCc4nc5cc(Cl)c(Cl)cc5[nH]4)nc(N4CCOCC4)nc32)cn1` the % of control [4] was 11.8%.

`CN(C)CCOc1ccc(-c2nc(-c3ccncc3)c(-c3ccc4c(c3)CC/C4=N\O)[nH]2)cc1` showed a % of control [5] of 74%.

Compound `N#Cc1cccc(-c2c[nH]c3ncnc(N4CCOCC4)c23)c1` has a % of control [6] of 87% and a % of control [7] of 25%.
